Source: ChEMBL document CHEMBL4229428, “Design, synthesis, X-ray studies, and biological evaluation of novel BACE1 inhibitors with bicyclic isoxazoline carboxamides as the P3 ligand” (Bioorg Med Chem Lett, 2018)

target: T1, Beta-secretase 1 (Homo sapiens, UniProt P56817); assay: Inhibition of BACE1 (unknown origin) by cell-based assay
T1 sequence (P56817 whole entry): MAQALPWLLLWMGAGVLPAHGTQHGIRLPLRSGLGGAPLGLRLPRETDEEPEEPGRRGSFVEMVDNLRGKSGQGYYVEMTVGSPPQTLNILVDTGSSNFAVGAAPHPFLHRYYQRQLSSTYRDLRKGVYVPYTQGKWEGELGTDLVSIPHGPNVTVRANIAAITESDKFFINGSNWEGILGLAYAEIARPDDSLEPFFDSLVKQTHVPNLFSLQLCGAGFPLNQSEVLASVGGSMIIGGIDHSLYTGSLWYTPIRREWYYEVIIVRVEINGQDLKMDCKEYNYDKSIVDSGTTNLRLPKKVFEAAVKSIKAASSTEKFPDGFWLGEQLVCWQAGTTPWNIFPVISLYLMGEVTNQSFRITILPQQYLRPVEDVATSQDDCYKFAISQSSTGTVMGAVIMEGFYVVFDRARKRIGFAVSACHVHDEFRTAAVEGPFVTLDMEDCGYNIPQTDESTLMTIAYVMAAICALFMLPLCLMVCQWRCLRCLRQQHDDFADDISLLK

| Compound | EC50 [µM] |
| --- | --- |
| CSC[C@H](NC(=O)C1=NO[C@@H]2OCC[C@H]12)C(=O)N[C@@H](CC(C)C)[C@@H](O)C[C@@H](C)C(=O)N[C@H](C(=O)NCC(C)C)C(C)C | 0.343 |

target: T1, Beta-secretase 1; assay: Inhibition of recombinant BACE1 (unknown origin) using fluorogenic substrate

| Compound | Ki [µM] |
| --- | --- |
| CC(C)CNC(=O)[C@@H](NC(=O)[C@H](C)C[C@H](O)[C@H](CC(C)C)NC(=O)[C@H](CNC(=O)OC(C)(C)C)NC(=O)C1=NO[C@@H]2OCC[C@H]12)C(C)C | 0.809 |
| CSC[C@H](NC(=O)C1=NO[C@H]2OCC[C@@H]12)C(=O)N[C@@H](CC(C)C)[C@@H](O)C[C@@H](C)C(=O)N[C@H](C(=O)NCC(C)C)C(C)C | 0.554 |
| CSC[C@H](NC(=O)C1=NO[C@@H]2OCC[C@H]12)C(=O)N[C@@H](CC(C)C)[C@@H](O)C[C@@H](C)C(=O)N[C@H](C(=O)NCC(C)C)C(C)C | 0.0109 |
| COc1cccc(CNC[C@@H](O)[C@H](Cc2ccccc2)NC(=O)[C@H](CS(C)(=O)=O)NC(=O)C2=NO[C@H]3OCC[C@@H]23)c1 | 28.8 |
| CC(C)CNC(=O)[C@@H](NC(=O)[C@H](C)C[C@H](O)[C@H](CC(C)C)NC(=O)[C@H](CS(C)(=O)=O)NC(=O)C1=NO[C@@H]2OCCC[C@H]12)C(C)C | 0.0281 |
| CC(C)CNC(=O)[C@@H](NC(=O)[C@H](C)C[C@H](O)[C@H](CC(C)C)NC(=O)[C@H](CNC(=O)OC(C)(C)C)NC(=O)C1=NO[C@H]2OCC[C@@H]12)C(C)C | 4.12 |
| COc1cccc(CNC[C@@H](O)[C@H](Cc2ccccc2)NC(=O)[C@H](CS(C)(=O)=O)NC(=O)C2=NO[C@@H]3OCC[C@H]23)c1 | 41.1 |
| CC(C)CNC(=O)[C@@H](NC(=O)[C@H](C)C[C@H](O)[C@H](CC(C)C)NC(=O)[C@H](CS(C)(=O)=O)NC(=O)C1=NO[C@@H]2OCC[C@H]12)C(C)C | 0.11 |
| CC(C)CNC(=O)[C@@H](NC(=O)[C@H](C)C[C@H](O)[C@H](CC(C)C)NC(=O)[C@H](CS(C)(=O)=O)NC(=O)C1=NO[C@H]2OCCC[C@@H]12)C(C)C | 0.63 |
| CC(C)CNC(=O)[C@@H](NC(=O)[C@H](C)C[C@H](O)[C@H](CC(C)C)NC(=O)[C@H](CS(C)(=O)=O)NC(=O)C1=NO[C@H]2OCC[C@@H]12)C(C)C | 0.28 |
